# Experimental data from ChEMBL document CHEMBL3217463, “Design, synthesis and biological evaluation of -lactam hydroxamate based TACE inhibitors” (Medchemcomm, 2011).
# pIC50: −log10 of the molar value.
# Assays:
# Rattus norvegicus [1] = experiment: Toxicity in Wistar rat assessed as total bilirubin at 100 mg/kg, po bid for 28 days (reference value: 0.14 +/- 0.01 mg/dL); type: organism-based; parameters: dose 100 mg/kg, route oral; conditions: in vivo, 672 h
# Rattus norvegicus [2] = experiment: Toxicity in Wistar rat assessed as alanine aminotransferase at 100 mg/kg, po bid for 28 days (reference value: 20.78 +/- 1.31 U/L); type: organism-based; parameters: dose 100 mg/kg, route oral; conditions: in vivo, 672 h
# Rattus norvegicus [3] = experiment: Toxicity in Wistar rat assessed as alkaline phosphatase at 100 mg/kg, po bid for 28 days (reference value: 134.66 +/- 5.3 U/L); type: organism-based; parameters: dose 100 mg/kg, route oral; conditions: in vivo, 672 h
# Blood = experiment: Antiinflammatory activity in human whole blood assessed as inhibition of LPS-induced TNFalpha secretion by ELISA; type: functional, tissue-based
# Rattus norvegicus [4] = experiment: Toxicity in Wistar rat assessed as WBC count at 100 mg/kg, po bid for 28 days (reference value: 8.20 +/- 0.33 10^3/ul); type: organism-based; parameters: dose 100 mg/kg, route oral; conditions: in vivo, 672 h
# [5] = biological target: T1, Disintegrin and metalloproteinase domain-containing protein 10 (Homo sapiens, UniProt O14672); experiment: Inhibition of ADAM10 (unknown origin) using fluorescent substrate by fluorescence-based FRET assay
# T1 sequence (O14672 whole entry): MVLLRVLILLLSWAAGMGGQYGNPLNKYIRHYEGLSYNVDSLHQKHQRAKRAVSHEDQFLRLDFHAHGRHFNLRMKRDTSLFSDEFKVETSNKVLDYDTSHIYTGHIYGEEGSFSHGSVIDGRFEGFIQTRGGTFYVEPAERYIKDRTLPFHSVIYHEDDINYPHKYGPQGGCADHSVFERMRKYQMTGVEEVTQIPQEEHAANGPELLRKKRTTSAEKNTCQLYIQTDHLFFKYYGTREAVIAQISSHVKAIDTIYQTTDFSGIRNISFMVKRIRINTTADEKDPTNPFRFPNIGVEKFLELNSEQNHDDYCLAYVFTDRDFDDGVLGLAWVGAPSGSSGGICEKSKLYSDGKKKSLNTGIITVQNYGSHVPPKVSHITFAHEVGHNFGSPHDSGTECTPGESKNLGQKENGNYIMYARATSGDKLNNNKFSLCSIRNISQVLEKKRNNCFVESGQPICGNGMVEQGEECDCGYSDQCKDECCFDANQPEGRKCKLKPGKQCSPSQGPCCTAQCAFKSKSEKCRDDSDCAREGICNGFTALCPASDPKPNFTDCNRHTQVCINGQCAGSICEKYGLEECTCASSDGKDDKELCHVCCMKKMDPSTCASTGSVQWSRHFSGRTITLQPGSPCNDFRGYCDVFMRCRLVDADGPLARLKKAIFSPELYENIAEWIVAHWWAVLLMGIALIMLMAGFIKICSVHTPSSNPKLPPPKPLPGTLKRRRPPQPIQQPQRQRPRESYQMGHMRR
# Interstitial collagenase = biological target: T2, Interstitial collagenase (Homo sapiens, UniProt P03956); experiment: Inhibition of MMP1 (unknown origin) by fluorescence-based FRET assay
# T2 sequence (P03956 whole entry): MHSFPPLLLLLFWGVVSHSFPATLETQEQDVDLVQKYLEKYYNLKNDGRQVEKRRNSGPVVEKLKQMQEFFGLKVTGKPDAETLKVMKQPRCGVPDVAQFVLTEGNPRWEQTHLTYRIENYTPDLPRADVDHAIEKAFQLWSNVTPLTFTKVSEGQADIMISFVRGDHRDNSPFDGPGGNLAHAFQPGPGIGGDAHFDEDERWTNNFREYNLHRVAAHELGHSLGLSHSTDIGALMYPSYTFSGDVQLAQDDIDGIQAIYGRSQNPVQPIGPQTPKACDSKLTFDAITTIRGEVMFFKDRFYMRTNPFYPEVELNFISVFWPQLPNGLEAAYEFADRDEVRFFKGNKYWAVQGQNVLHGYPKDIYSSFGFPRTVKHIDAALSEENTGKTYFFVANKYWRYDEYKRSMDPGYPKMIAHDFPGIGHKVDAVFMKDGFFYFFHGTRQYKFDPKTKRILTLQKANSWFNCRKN
# Stromelysin-1 = Stromelysin-1 (Homo sapiens, UniProt P08254); experiment: Inhibition of MMP3 (unknown origin) by fluorescence-based FRET assay
# Neutrophil collagenase = Neutrophil collagenase (Homo sapiens, UniProt P22894); experiment: Inhibition of MMP8 (unknown origin) by fluorescence-based FRET assay
# [6] = biological target: Matrix metalloproteinase-9 (Homo sapiens, UniProt P14780); experiment: Inhibition of MMP9 (unknown origin) by fluorescence-based FRET assay
# [7] = biological target: Matrix metalloproteinase-14 (Homo sapiens, UniProt P50281); experiment: Inhibition of MMP14 (unknown origin) by fluorescence-based FRET assay
# [8] = biological target: T3, Disintegrin and metalloproteinase domain-containing protein 17 (Homo sapiens, UniProt P78536); experiment: Ratio of IC50 for human catalytic domain of TACE to IC50 for ADAM10 (unknown origin)
# [9] = biological target: T3, Disintegrin and metalloproteinase domain-containing protein 17; experiment: Ratio of IC50 for human catalytic domain of TACE to IC50 for MMP1 (unknown origin)
# [10] = biological target: T3, Disintegrin and metalloproteinase domain-containing protein 17; experiment: Ratio of IC50 for human catalytic domain of TACE to IC50 for MMP7 (unknown origin)
# [11] = biological target: T3, Disintegrin and metalloproteinase domain-containing protein 17; experiment: Ratio of IC50 for human catalytic domain of TACE to IC50 for MMP8 (unknown origin)
# [12] = biological target: T3, Disintegrin and metalloproteinase domain-containing protein 17; experiment: Ratio of IC50 for human catalytic domain of TACE to IC50 for MMP13 (unknown origin)
# [13] = biological target: T3, Disintegrin and metalloproteinase domain-containing protein 17; experiment: Ratio of IC50 for human catalytic domain of TACE to IC50 for MMP14 (unknown origin)
# Mus musculus = experiment: Antiinflammatory activity in po dosed Swiss Albino mouse assessed as inhibition of LPS-induced TNFalpha secretion in blood treated 0.5 hrs before LPS and measured after 1 hr of LPS stimulus by ELISA; type: functional
# [14] = Half life in Wistar rat at 5 mg/kg, iv; type: ADME, organism-based; parameters: dose 5 mg/kg, route intravenous; conditions: in vivo
# [15] = Elimination rate constant in Wistar rat at 5 mg/kg, iv; type: ADME, organism-based; parameters: dose 5 mg/kg, route intravenous; conditions: in vivo
# Rattus norvegicus [16] = experiment: Half life in Wistar rat at 5 mg/kg, po; type: ADME, organism-based; parameters: dose 5 mg/kg, route oral; conditions: in vivo
# Rattus norvegicus [17] = experiment: Elimination rate constant in Wistar rat at 5 mg/kg, po; type: ADME, organism-based; parameters: dose 5 mg/kg, route oral; conditions: in vivo
# Rattus norvegicus [18] = experiment: Toxicity in Wistar rat assessed as survival at 100 mg/kg, po bid for 28 days; type: organism-based; parameters: dose 100 mg/kg, route oral; conditions: in vivo, 672 h
# Rattus norvegicus [19] = experiment: Toxicity in Wistar rat assessed as adverse changes at 100 mg/kg, po bid for 28 days; type: organism-based; parameters: dose 100 mg/kg, route oral; conditions: in vivo, 672 h
# Rattus norvegicus [20] = experiment: Toxicity in Wistar rat assessed as food consumption at 100 mg/kg, po bid for 28 days; type: organism-based; parameters: dose 100 mg/kg, route oral; conditions: in vivo, 672 h
# Rattus norvegicus [21] = experiment: Toxicity in Wistar rat assessed as relative heart weight at 100 mg/kg, po bid for 28 days (reference value: 0.345 +/- 0.007 %); type: organism-based; parameters: dose 100 mg/kg, route oral; conditions: in vivo, 672 h
# Rattus norvegicus [22] = experiment: Toxicity in Wistar rat assessed as relative liver weight at 100 mg/kg, po bid for 28 days (reference value: 3.659 +/- 0.1 %); type: organism-based; parameters: dose 100 mg/kg, route oral; conditions: in vivo, 672 h
# Rattus norvegicus [23] = experiment: Toxicity in Wistar rat assessed as relative kidney weight at 100 mg/kg, po bid for 28 days (reference value: 0.821 +/- 0.03 %); type: organism-based; parameters: dose 100 mg/kg, route oral; conditions: in vivo, 672 h
# Rattus norvegicus [24] = experiment: Toxicity in Wistar rat assessed as relative brain weight at 100 mg/kg, po bid for 28 days (reference value: 0.727+/- 0.024 %); type: organism-based; parameters: dose 100 mg/kg, route oral; conditions: in vivo, 672 h
# T3 sequence (P78536 whole entry, the tested form may be a part): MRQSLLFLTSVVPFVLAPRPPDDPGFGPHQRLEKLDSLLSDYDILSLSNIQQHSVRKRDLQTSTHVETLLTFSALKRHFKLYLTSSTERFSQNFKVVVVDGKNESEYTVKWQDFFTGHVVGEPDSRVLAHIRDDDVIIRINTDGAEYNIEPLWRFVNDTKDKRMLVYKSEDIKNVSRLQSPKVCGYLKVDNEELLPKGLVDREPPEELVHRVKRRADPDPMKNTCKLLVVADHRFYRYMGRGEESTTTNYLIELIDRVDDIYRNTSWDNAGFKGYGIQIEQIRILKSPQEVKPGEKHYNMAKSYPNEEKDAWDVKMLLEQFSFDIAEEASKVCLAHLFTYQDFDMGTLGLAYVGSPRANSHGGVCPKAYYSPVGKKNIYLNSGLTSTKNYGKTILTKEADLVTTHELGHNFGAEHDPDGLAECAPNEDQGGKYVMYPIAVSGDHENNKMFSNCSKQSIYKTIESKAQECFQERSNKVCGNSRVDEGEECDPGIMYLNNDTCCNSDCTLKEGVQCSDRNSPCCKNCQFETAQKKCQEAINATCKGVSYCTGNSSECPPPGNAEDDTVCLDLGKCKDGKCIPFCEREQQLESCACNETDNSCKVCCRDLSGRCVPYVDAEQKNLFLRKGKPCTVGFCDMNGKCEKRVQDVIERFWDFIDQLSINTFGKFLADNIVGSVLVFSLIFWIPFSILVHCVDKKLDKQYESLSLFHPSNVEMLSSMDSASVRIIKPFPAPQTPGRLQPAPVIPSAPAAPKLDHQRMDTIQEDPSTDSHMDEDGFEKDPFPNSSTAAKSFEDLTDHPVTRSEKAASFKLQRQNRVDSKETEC
# Sequence of Stromelysin-1 (P08254 whole entry): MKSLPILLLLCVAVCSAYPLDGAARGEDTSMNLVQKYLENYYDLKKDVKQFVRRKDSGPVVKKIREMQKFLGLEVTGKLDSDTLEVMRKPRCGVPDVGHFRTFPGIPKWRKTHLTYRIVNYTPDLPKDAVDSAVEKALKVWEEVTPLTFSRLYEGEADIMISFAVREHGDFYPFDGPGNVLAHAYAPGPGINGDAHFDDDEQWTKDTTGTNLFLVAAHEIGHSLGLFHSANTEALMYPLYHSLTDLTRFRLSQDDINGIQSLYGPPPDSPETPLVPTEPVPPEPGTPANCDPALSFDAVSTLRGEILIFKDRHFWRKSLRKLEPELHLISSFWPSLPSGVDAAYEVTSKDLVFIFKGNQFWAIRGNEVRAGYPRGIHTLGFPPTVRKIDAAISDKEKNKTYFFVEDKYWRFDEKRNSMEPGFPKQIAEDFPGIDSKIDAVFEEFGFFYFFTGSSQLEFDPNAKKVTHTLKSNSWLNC
# Sequence of Neutrophil collagenase (P22894 whole entry): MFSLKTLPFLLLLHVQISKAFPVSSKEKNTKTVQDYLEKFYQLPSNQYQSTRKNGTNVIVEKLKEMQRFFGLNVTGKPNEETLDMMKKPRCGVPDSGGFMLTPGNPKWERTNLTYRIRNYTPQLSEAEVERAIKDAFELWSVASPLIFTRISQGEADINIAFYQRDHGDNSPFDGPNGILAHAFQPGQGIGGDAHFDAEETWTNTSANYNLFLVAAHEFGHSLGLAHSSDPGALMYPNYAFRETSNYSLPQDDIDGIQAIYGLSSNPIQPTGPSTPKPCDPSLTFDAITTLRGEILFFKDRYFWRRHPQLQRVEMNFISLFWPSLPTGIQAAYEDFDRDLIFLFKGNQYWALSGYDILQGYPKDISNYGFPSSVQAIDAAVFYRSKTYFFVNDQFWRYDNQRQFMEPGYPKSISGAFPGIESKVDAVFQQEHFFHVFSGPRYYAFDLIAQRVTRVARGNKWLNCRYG
# Sequence of Matrix metalloproteinase-9 (P14780 whole entry): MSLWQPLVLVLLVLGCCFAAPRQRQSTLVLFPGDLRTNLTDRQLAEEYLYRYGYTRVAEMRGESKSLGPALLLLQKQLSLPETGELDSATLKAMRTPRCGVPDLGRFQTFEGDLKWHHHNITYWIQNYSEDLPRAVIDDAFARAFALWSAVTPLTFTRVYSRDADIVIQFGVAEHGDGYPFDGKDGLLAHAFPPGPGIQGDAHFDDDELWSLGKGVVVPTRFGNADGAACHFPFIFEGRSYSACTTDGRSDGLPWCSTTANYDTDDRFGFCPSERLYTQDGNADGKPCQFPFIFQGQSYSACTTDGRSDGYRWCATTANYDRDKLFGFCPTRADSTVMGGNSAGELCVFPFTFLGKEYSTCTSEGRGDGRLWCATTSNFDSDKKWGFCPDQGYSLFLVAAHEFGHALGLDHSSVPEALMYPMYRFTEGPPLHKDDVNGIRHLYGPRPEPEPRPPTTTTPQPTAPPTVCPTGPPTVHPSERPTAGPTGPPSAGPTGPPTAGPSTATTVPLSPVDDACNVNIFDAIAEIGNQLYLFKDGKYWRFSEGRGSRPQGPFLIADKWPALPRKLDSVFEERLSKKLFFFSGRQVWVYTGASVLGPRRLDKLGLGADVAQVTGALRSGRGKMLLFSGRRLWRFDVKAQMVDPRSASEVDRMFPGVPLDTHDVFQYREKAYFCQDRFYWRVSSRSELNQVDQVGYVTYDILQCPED
smiles,measurement,setting,value
COCCc1cc(COc2ccc([C@]3(N)CCN([C@H](CC(C)C)C(=O)NO)C3=O)cc2)c2ccccc2n1,Activity,Rattus norvegicus [1],0.17 mg/dL
same,Activity,Rattus norvegicus [2],21.04 U/L
same,Activity,Rattus norvegicus [3],121.2 U/L
same,pIC50,Blood,7.89
same,Activity,Rattus norvegicus [4],8.41 ×10³ /uL
same,pIC50,[5],5.92
same,pIC50,Interstitial collagenase,5.98
same,pIC50,Stromelysin-1,5.99
same,pIC50,Neutrophil collagenase,6.00
same,pIC50,[6],5.92
same,pIC50,[7],5.96
same,Ratio IC50,[8],> 500
same,Ratio IC50,[9],> 500
same,Ratio IC50,[10],> 500
same,Ratio IC50,[11],> 500
same,Ratio IC50,[12],> 500
same,Ratio IC50,[13],> 500
same,ED50,Mus musculus,3.1 mg/kg
same,half-life,[14],65.4 min
same,k el,[15],0.000283 s⁻¹
same,t1/2,Rattus norvegicus [16],3.81 h
same,Kel,Rattus norvegicus [17],0.44 h⁻¹
same,Activity,Rattus norvegicus [18],Non-toxic
same,Activity,Rattus norvegicus [19],Non-toxic
same,Activity,Rattus norvegicus [20],Non-toxic
same,Activity,Rattus norvegicus [21],0.358%
same,Activity,Rattus norvegicus [22],3.801%
same,Activity,Rattus norvegicus [23],0.878%
same,Activity,Rattus norvegicus [24],0.703%
